In patent US8772323B2, “Benzoxazole- and tetrahydrobenzoxazole-substituted pyridazinones as GPR119 agonists” (Boehringer Ingelheim International GmbH, priority 2010, dated 2014) one finds EC50 data, which are given here for 28 molecules.

Each structure is given as a SMILES string.

This assay deals with human GPR119 (Homo sapiens (Human), UniProt Q8TDV5). The assay is described as follows: AlphaScreen cAMP assay in Min-6/hGPR119 cells (GPR119 activation, intracellular cAMP). Format: cell-based. As to conditions: MIN6 cells stably transfected with human GPR119; 45 minutes' incubation at RT; AlphaScreen cAMP Assay Kit. On the procedure: The compounds of formula I according to the invention are GPR119 agonists. The effect of the compounds on the activation of GPR119 and on the stimulation of intracellular cAMP concentration is determined using the AlphaScreen cAMP Assay Kit (Cat. No. #6760625R) made by PerkinElmer.
Sequence of human GPR119 (Q8TDV5 whole entry): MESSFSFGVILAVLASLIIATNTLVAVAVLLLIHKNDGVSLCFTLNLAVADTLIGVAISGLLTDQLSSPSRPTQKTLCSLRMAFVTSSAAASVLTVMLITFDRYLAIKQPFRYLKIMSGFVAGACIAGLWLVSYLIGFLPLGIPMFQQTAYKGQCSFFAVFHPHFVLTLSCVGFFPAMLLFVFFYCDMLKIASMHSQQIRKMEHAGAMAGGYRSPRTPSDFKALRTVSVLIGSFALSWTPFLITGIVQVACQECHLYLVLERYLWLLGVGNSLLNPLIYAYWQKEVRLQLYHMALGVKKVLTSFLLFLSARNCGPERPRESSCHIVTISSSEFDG
MIN6 cells [Miyazaki J et al. Endocrinology. 1990 July; 127(1):126-32] were stably transfected with an expression vector for human GPR119 cDNA (Acc. No. NP_848566). Min-6/hGPR119 cells are cultured in DMEM, 10% FBS, 50 μM β-mercaptoethanol, 0.3 mg/mL Geniticin, 2 mM GlutaMAX at 37° C. 5% CO2. For the assay, the cells are placed in Optiplates (white, 384-well, 160W-barcoded, TC, sterile with lid, Cat. No. #6007688 (Perkin Elmer); 10000 cells/well; 50 μl). The plates covered with lids are then incubated for 24 hours at 37° C./5% CO2.
After the medium has been sucked out of the wells completely, 10 μl of the test compound are added, the compounds are diluted beforehand with stimulating buffer (140 mM NaCl, 3.6 mM KCl, 0.5 mM NaH2PO4, 0.5 mM MgSO4, 1.5 mM CaCl2, 10 mM Hepes, 5 mM NaHCO3; pH 7.4. 0.5 mM IBMX and 0.1% BSA, the final DMSO concentration is 1%). After 45 minutes' incubation at RT, the cAMP concentrations are determined using the AlphaScreen cAMP Assay Kit (Cat. No. #6760625R from PerkinElmer).
For orientation: Bead proximity is the source of the signal in Alpha formats.

Turning to `CC[C@@H]1C(=O)NN=C(c2ccc3nc(-c4ccccc4)oc3c2)[C@H]1C` (relative stereo) [Example 126, trans-4-ethyl-5-methyl-6-(2-phenyl-benzoxazol-6-yl)-4,5-dihydro-2H-pyridazin-3-one], a half-maximal effect (EC50) was put at 0.306 µM. In other words, the sub-micromolar range.

As to `CCC[C@@H]1C(=O)NN=C(c2ccc3nc(-c4ccccc4)oc3c2)[C@H]1C` (relative stereo) [Example 128, trans-5-methyl-6-(2-phenyl-benzoxazol-6-yl)-4-propyl-4,5-dihydro-2H-pyridazin-3-one], the EC50 (in general, the concentration giving half of the maximal effect) turned out to be 0.056 µM. `CCC[C@H]1C(=O)NN=C(c2ccc3nc(-c4ccccc4)oc3c2)[C@H]1C` (relative stereo) [Example 129, cis-5-methyl-6-(2-phenyl-benzoxazol-6-yl)-4-propyl-4,5-dihydro-2H-pyridazin-3-one] yielded an EC50 of 6.72 µM. Compared with the last molecule, the EC50 is about 120-fold higher. With `CC[C@@H]1C(c2ccc3nc(-c4ccccc4)oc3c2)=NNC(=O)[C@H]1C` (relative stereo) [Example 145, trans-5-ethyl-4-methyl-6-(2-phenyl-benzoxazol-6-yl)-4,5-dihydro-2H-pyridazin-3-one], a half-maximal effect (EC50) was put at 0.209 µM.

Take `CCC[C@H]1C(=O)NN=C(c2ccc3nc(-c4ccc(OCCN(C(C)C)C(C)C)cc4)oc3c2)[C@H]1C` (relative stereo) [Example 169, cis-6-{2-[4-(2-diisopropylamino-ethoxy)-phenyl]-benzoxazol-6-yl}-5-methyl-4-propyl-4,5-dihydro-2H-pyridazin-3-one]: the EC50 was 1.03 µM. With `CCC[C@@H]1C(=O)NN=C(c2ccc3nc(-c4ccc(OCCN(C(C)C)C(C)C)cc4)oc3c2)[C@H]1C` (relative stereo) [Example 170, trans-6-{2-[4-(2-diisopropylamino-ethoxy)-phenyl]-benzoxazol-6-yl}-5-methyl-4-propyl-4,5-dihydro-2H-pyridazin-3-one] the figure was 0.053 µM; with `CCC[C@@H]1C(=O)NN=C(c2ccc3nc(-c4ccc(OC(C)C)cc4)oc3c2)[C@H]1C` (relative stereo) [Example 171, trans-6-[2-(4-isopropoxy-phenyl)-benzoxazol-6-yl]-5-methyl-4-propyl-4,5-dihydro-2H-pyridazin-3-one], 0.037 µM; with `CCC[C@@H]1C(=O)NN=C(c2ccc3nc(-c4ccc(OCCCN5CCCCC5)cc4)oc3c2)[C@H]1C` (relative stereo) [Example 172, trans-5-methyl-6-{2-[4-(3-piperidin-1-yl-propoxy)-phenyl]-benzoxazol-6-yl}-4-propyl-4,5-dihydro-2H-pyridazin-3-one], 0.755 µM.

On to `CCC[C@@H]1C(=O)NN=C(c2ccc3nc(-c4ccc(OC)cc4)oc3c2)[C@H]1C` (relative stereo) [Example 174, trans-6-[2-(4-methoxy-phenyl)-benzoxazol-6-yl]-5-methyl-4-propyl-4,5-dihydro-2H-pyridazin-3-one], for which a half-maximal response (EC50) required 0.092 µM. As for `CC[C@H]1C(c2ccc3nc(-c4ccc(OC(C)C)cc4)oc3c2)=NNC(=O)[C@@H]1C` (relative stereo) [Example 178, trans-5-ethyl-6-[2-(4-isopropoxy-phenyl)-benzoxazol-6-yl]-4-methyl-4,5-dihydro-2H-pyridazin-3-one], the figure is 0.108 µM; as for `CC[C@@H]1C(c2ccc3nc(-c4ccc(OC(C)C)cc4)oc3c2)=NNC(=O)[C@@H]1C` (relative stereo) [Example 179, cis-5-ethyl-6-[2-(4-isopropoxy-phenyl)-benzoxazol-6-yl]-4-methyl-4,5-dihydro-2H-pyridazin-3-one], 3.84 µM. As for `CCC[C@H]1C(=O)NN=C(c2ccc3nc(-c4ccc(F)cc4)oc3c2)[C@@H]1C` (relative stereo) [Example 182, trans-6-[2-(4-fluoro-phenyl)-benzoxazol-6-yl]-5-methyl-4-propyl-4,5-dihydro-2H-pyridazin-3-one], the figure is 0.116 µM; as for `CCC[C@H]1C(=O)NN=C(c2ccc3nc(-c4cccs4)oc3c2)[C@@H]1C` (relative stereo) [Example 183, trans-5-methyl-4-propyl-6-(2-thiophen-2-yl-benzoxazol-6-yl)-4,5-dihydro-2H-pyridazin-3-one], 0.134 µM. For the molecule `CCC[C@H]1C(=O)NN=C(c2ccc3nc(-c4ccc(C)s4)oc3c2)[C@@H]1C` (relative stereo) [Example 184, trans-5-methyl-6-[2-(5-methyl-thiophen-2-yl)-benzoxazol-6-yl]-4-propyl-4,5-dihydro-2H-pyridazin-3-one], the EC50 was 0.053 µM. This EC50 is about 2.5-fold lower than that of the molecule before. As for `CCC[C@H]1C(=O)NN=C(c2ccc3nc(-c4ccc(Cl)cc4)oc3c2)[C@@H]1C` (relative stereo) [Example 185, trans-6-[2-(4-chloro-phenyl)-benzoxazol-6-yl]-5-methyl-4-propyl-4,5-dihydro-2H-pyridazin-3-one], the figure is 0.142 µM; as for `CCC[C@H]1C(=O)NN=C(c2ccc3nc(-c4cc(C)cs4)oc3c2)[C@@H]1C` (relative stereo) [Example 186, trans-5-methyl-6-[2-(4-methyl-thiophen-2-yl)-benzoxazol-6-yl]-4-propyl-4,5-dihydro-2H-pyridazin-3-one], 0.088 µM; as for `CCC[C@H]1C(=O)NN=C(c2ccc3nc(-c4ccsc4)oc3c2)[C@@H]1C` (relative stereo) [Example 187, trans-5-methyl-4-propyl-6-(2-thiophen-3-yl-benzoxazol-6-yl)-4,5-dihydro-2H-pyridazin-3-one], 0.173 µM. With `CCC[C@H]1C(=O)NN=C(c2ccc3nc(-c4cc(C)oc4C)oc3c2)[C@@H]1C` (relative stereo) [Example 189, trans-6-[2-(2,5-dimethyl-furan-3-yl)-benzoxazol-6-yl]-5-methyl-4-propyl-4,5-dihydro-2H-pyridazin-3-one] the figure was 0.127 µM; with `CCCC[C@@H]1C(=O)NN=C(c2ccc3nc(-c4ccccc4)oc3c2)[C@H]1C` (relative stereo) [Example 197, trans-4-butyl-5-methyl-6-(2-phenyl-benzoxazol-6-yl)-4,5-dihydro-2H-pyridazin-3-one], 1.11 µM. As for `C=CC[C@H]1C(=O)NN=C(c2ccc3nc(-c4ccccc4)oc3c2)[C@H]1C` (relative stereo) [Example 198, cis-4-allyl-5-methyl-6-(2-phenyl-benzoxazol-6-yl)-4,5-dihydro-2H-pyridazin-3-one], the figure is 0.896 µM; as for `CCC[C@H]1C(=O)NN=C(c2ccc3nc(-c4ccc(OCc5ccccc5)cc4)oc3c2)[C@H]1C` (relative stereo) [Example 199, cis-6-[2-(4-benzoxy-phenyl)-benzoxazol-6-yl]-5-methyl-4-propyl-4,5-dihydro-2H-pyridazin-3-one], 0.832 µM. In turn, `CCC[C@@H]1C(=O)NN=C(c2ccc3nc(-c4ccc(OCc5ccccc5)cc4)oc3c2)[C@H]1C` (relative stereo) [Example 200, trans-6-[2-(4-benzoxy-phenyl)-benzoxazol-6-yl]-5-methyl-4-propyl-4,5-dihydro-2H-pyridazin-3-one] came in with an EC50 of 0.052 µM. As for `CCC1CC(=O)NN=C1c1ccc2nc(-c3ccc(O[C@@H]4CCCC[C@H]4N(CC)CC)cc3)oc2c1` (relative stereo) [Example 224, 6-{2-[4-(trans-2-diethylamino-cyclohexyloxy)-phenyl]-benzoxazol-6-yl}-5-ethyl-4,5-dihydro-2H-pyridazin-3-one], the figure is 0.319 µM; as for `CCC1CC(=O)NN=C1c1ccc2nc(-c3ccc(O[C@H]4CCC[C@@H]4N4CCCCC4)cc3)oc2c1` (relative stereo) [Example 225, 5-ethyl-6-{2-[4-(trans-2-piperidin-1-yl-cyclopentyloxy)-phenyl]-benzoxazol-6-yl}-4,5-dihydro-2H-pyridazin-3-one], 0.231 µM.

The molecule `CCC[C@H]1C(=O)NN=C(c2ccc3nc(-c4cccn4C)oc3c2)[C@@H]1C` (relative stereo) [Example 252, Trans-5-methyl-6-[2-(1-methyl-1H-pyrrol-2-yl)-benzoxazol-6-yl]-4-propyl-4,5-dihydro-2H-pyridazin-3-one] came in with an EC50 of 0.11 µM. As for `CCC1OC(=O)NN=C1c1ccc2nc(-c3ccccc3)oc2c1` (stereo in doubt) [Example 79, (S)-6-ethyl-5-(2-phenyl-benzoxazol-6-yl)-3,6-dihydro-[1,3,4]oxadiazin-2-one], the figure is 0.041 µM; as for `CCC1OC(=O)NN=C1c1ccc2nc(-c3ccccc3)oc2c1` (stereo in doubt) [Example 80, (R)-6-ethyl-5-(2-phenyl-benzoxazol-6-yl)-3,6-dihydro-[1,3,4]oxadiazin-2-one], 0.615 µM; as for `CCC[C@@H]1C(=O)NN=C(c2ccc3nc(-c4ccc(OCCN5CCCCC5)cc4)oc3c2)[C@H]1C` (stereo in doubt) [Example 173, trans-5-methyl-6-{2-[4-(3-piperidin-1-yl-ethoxy)-phenyl]-benzoxazol-6-yl}-4-propyl-4,5-dihydro-2H-pyridazin-3-one], 0.218 µM.
